The values that follow come from patent publication US4335249A, “Herbicidal diphenyl ethers, sulfides, sulfoxides and sulfones” (Rohm and Haas Company, priority 1976, dated 1982).

Type in all cases: in vivo
The test system of assay [1] is cocklebur (Xanthium pensylvanicum). Nature of the assay: Preemergence herbicidal activity, cocklebur. As to conditions: 2 lb/A; for pest or weed control at 2241.7 g/ha: Xanthium strumarium, pre-emergence, 336 h. The procedure, abridged: (§1)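 Acetone-dissolved compound, water-diluted, sprayed over soil flats at 50 gallons/acre carrier and lb/A rates; pre- vs postemergence timing is at planting vs two weeks after germination. Evaluation ~two weeks post-spray, expressed as mean percentage of plants dead.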

Assay [2] concerns marigold (Tagetes spp.). Kind of assay: Preemergence herbicidal activity, marigold. As to conditions: 2 lb/A; for pest or weed control at 2241.7 g/ha: pre-emergence, 336 h. The gist of the method:
as §1

Assay [3] concerns morningglory (Ipomoca spp.). Nature of the assay: Preemergence herbicidal activity, morningglory. As to conditions: 2 lb/A; for pest or weed control at 2241.7 g/ha: Ipomoea, pre-emergence, 336 h. The procedure, abridged: as §1
Assay [4] deals with tomato (Lycopersicon esculentum). Kind of assay: Preemergence herbicidal activity, tomato. As to conditions: Pre, 2 lb/A; for pest or weed control at 2241.7 g/ha: Solanum lycopersicum, pre-emergence, 336 h. The gist of the method: as §1
The subject of assay [5] is velvetleaf (Abutilon theophrasti). Kind of assay: Preemergence herbicidal activity, velvetleaf. As to conditions: Pre, 2 lb/A; for pest or weed control at 2241.7 g/ha: Abutilon theophrasti, pre-emergence, 336 h. The gist of the method: as §1
Assay [6] has as its system barnyardgrass (Echinochloa crusgalli). Kind of assay: Preemergence herbicidal activity, barnyardgrass. As to conditions: Pre, 2 lb/A; for pest or weed control at 2241.7 g/ha: Echinochloa crus-galli, pre-emergence, 336 h. The gist of the method: (§2)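 Control of the weed species is the read-out, following spray application at a given rate in lb/A. Flats of seeded soil received treatment either directly upon planting or, for postemergence, two weeks after seedlings emerged. Spray carrier was aqueous acetone at 50 gallons per acre equivalent.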

The test system of assay [7] is downybrome (Bromus tectorum). Nature of the assay: Preemergence herbicidal activity, downybrome. As to conditions: Pre, 2 lb/A; for pest or weed control at 2241.7 g/ha: Bromus tectorum, pre-emergence, 336 h. The procedure, abridged:
as §1

Assay [8] has as its system foxtail (Setaria spp.). Kind of assay: Preemergence herbicidal activity, foxtail. As to conditions: Pre, 2 lb/A; for pest or weed control at 2241.7 g/ha: Setaria, pre-emergence, 336 h. The gist of the method: as §1
In assay [9] the test system is yellow nutsedge (Cyperus esculentus). Kind of assay: Preemergence herbicidal activity, yellow nutsedge. As to conditions: 2 lb/A; for pest or weed control at 2241.7 g/ha: Cyperus, pre-emergence, 336 h. The procedure, abridged: as §1
Assay [10] deals with wild oats (Avena fatua). Nature of the assay: Preemergence herbicidal activity, wild oats. As to conditions: Pre, 2 lb/A; for pest or weed control at 2241.7 g/ha: Avena fatua, pre-emergence, 336 h, read-out: % control, Wild oat. The gist of the method:
as §1

Assay [11] has as its system cocklebur (Xanthium pensylvanicum). Nature of the assay: Postemergence herbicidal activity, cocklebur. As to conditions: 2 lb/A; for pest or weed control at 2241.7 g/ha: Xanthium strumarium, post-emergence, 336 h. The procedure, abridged:
as §1

Assay [12] concerns marigold (Tagetes spp.). Kind of assay: Postemergence herbicidal activity, marigold. As to conditions: 2 lb/A; for pest or weed control at 2241.7 g/ha: post-emergence, 336 h. The procedure, abridged: as §1
In assay [13] the test system is morningglory (Ipomoca spp.). Kind of assay: Postemergence herbicidal activity, morningglory. As to conditions: 2 lb/A; for pest or weed control at 2241.7 g/ha: Ipomoea, post-emergence, 336 h. The procedure, abridged: as §1
In assay [14] the test system is tomato (Lycopersicon esculentum). Nature of the assay: Postemergence herbicidal activity, tomato. As to conditions: Post, 2 lb/A; for pest or weed control at 2241.7 g/ha: Solanum lycopersicum, post-emergence, 336 h. The procedure, abridged:
as §1

The subject of assay [15] is velvetleaf (Abutilon theophrasti). Nature of the assay: Postemergence herbicidal activity, velvetleaf. As to conditions: 2 lb/A; for pest or weed control at 2241.7 g/ha: Abutilon theophrasti, post-emergence, 336 h. The gist of the method:
as §2

Assay [16] concerns barnyardgrass (Echinochloa crusgalli). Kind of assay: Postemergence herbicidal activity, barnyardgrass. As to conditions: Echinochloa crus-galli, post-emergence, 336 h; Post, 2 lb/A. The procedure, abridged:
as §2

Assay [17] has as its system downybrome (Bromus tectorum). Nature of the assay: Postemergence herbicidal activity, downybrome. As to conditions: Post, 2 lb/A; for pest or weed control at 2241.7 g/ha: Bromus tectorum, post-emergence, 336 h. The gist of the method:
as §1

Assay [18] deals with foxtail (Setaria spp.). Kind of assay: Postemergence herbicidal activity, foxtail. As to conditions: Post, 2 lb/A; for pest or weed control at 2241.7 g/ha: Setaria, post-emergence, 336 h. The procedure, abridged: as §1
For assay [19], the system named is yellow nutsedge (Cyperus esculentus). Nature of the assay: Postemergence herbicidal activity, yellow nutsedge. As to conditions: 2 lb/A; for pest or weed control at 2241.7 g/ha: Cyperus, post-emergence, 336 h. The gist of the method:
as §1

Assay [20] has as its system wild oats (Avena fatua). Kind of assay: Postemergence herbicidal activity, wild oats. As to conditions: Post, 2 lb/A; for pest or weed control at 2241.7 g/ha: Avena fatua, post-emergence, 336 h, read-out: % control, Wild oat. The gist of the method:
as §1

Structures are written as SMILES.

Take `CC(Oc1ccc(Oc2ccc(C(F)(F)F)cc2Cl)cc1)C(=O)O` (stereo not drawn) [Example 15]: the “% control, Cocklebur” value in assay [1] (Pre) and in assay [11] (Post) was 0% in each case. Besides, the “% control, Marigold” value in the assay on marigold (Tagetes spp.) [2] (Pre) and in the assay on marigold (Tagetes spp.) [12] (Post) was 0% each time. Also, the “% control, Morningglory” value worked out at 40% in [3] (Pre) and 0% in assay [13] (Post). The “% control, Tomato” value in [4] and in assay [14] was 0% throughout. The “% control, Velvetleaf” value in assay [5] and in assay [15] (Post) was 0% in each case. Besides, the “% control, Barnyardgrass” value in assay [6] was 100%. Further, the “% control, Downybrome” value in assay [7] and in assay [17] was 0% throughout. Further, the “% control, Foxtail” value was 100% with foxtail (Setaria spp.) [8] and 90% in the assay on foxtail (Setaria spp.) [18]. Also, the “% control, Nutsedge” value in [9] (Pre) and in [19] (Post) was 0% throughout. For the same compound, the “% control, Wild oat” value in the assay with wild oats (Avena fatua) [10] is recorded as 0%; in the assay on wild oats (Avena fatua) [20], 20%. In assay [16], this compound displayed a pest or weed control at 2241.7 g/ha of 90%.

For `CCOC(=O)C(C)Oc1ccc(Oc2ccc(C(F)(F)F)cc2C#N)cc1` (stereo not drawn) [Example 37], the pest or weed control at 2241.7 g/ha in [1] was found to be 0%; in the assay on marigold (Tagetes spp.) [2], 0%; in [3] it was 40%; in [4], 20%; in [5], 20%; in assay [6] it was 100%. Moreover, the pest or weed control at 2241.7 g/ha in [7] is 95%; with foxtail (Setaria spp.) [8], 60%; in [9], 0%; with wild oats (Avena fatua) [10], 0%; in [11], 30%; in the assay on marigold (Tagetes spp.) [12], 10%. The pest or weed control at 2241.7 g/ha was determined as 10% in [13]; 30% in [14]; 0% in [15]; 100% in assay [16]; 90% in [17]; 95% in the assay with foxtail (Setaria spp.) [18]. The pest or weed control at 2241.7 g/ha worked out at 0% in [19] and 90% in the assay with wild oats (Avena fatua) [20].

As to `CC(C#N)Oc1ccc(Oc2ccc(C(F)(F)F)cc2Cl)cc1` (stereo not drawn) [Example 19, 2-[4-(2-chloro-4-trifluoromethylphenoxy)phenoxy] propionitrile], the pest or weed control at 2241.7 g/ha in assay [1] amounted to 0%; in the assay with marigold (Tagetes spp.) [2] it was 0%; in assay [3], 0%; in assay [4], 0%; in assay [5], 0%; in assay [6], 100%. The pest or weed control at 2241.7 g/ha came to 20% in assay [7]; 100% in the assay on foxtail (Setaria spp.) [8]; 0% in [9]; 30% in the assay with wild oats (Avena fatua) [10]; 0% in [11]; 0% in the assay on marigold (Tagetes spp.) [12]. The pest or weed control at 2241.7 g/ha in [13] stood at 0%; in assay [14] it was 0%; in assay [15] it was 0%; in [16] it was 99%; in [17], 30%; in the assay on foxtail (Setaria spp.) [18], 99%. The figures for the pest or weed control at 2241.7 g/ha (in assay [19]; in the assay with wild oats (Avena fatua) [20]) were 0% and 90%, respectively.
